Values joined by “and” are separate entries in the source; they are usually repeats but may differ in a detail not shown here. Identical values can stand only once.

The target of this test is PIK3CD (Human) (UniProt O00329). Briefly: Enzyme Assay.
PIK3CD (Human), sequence (O00329 whole entry, looked up): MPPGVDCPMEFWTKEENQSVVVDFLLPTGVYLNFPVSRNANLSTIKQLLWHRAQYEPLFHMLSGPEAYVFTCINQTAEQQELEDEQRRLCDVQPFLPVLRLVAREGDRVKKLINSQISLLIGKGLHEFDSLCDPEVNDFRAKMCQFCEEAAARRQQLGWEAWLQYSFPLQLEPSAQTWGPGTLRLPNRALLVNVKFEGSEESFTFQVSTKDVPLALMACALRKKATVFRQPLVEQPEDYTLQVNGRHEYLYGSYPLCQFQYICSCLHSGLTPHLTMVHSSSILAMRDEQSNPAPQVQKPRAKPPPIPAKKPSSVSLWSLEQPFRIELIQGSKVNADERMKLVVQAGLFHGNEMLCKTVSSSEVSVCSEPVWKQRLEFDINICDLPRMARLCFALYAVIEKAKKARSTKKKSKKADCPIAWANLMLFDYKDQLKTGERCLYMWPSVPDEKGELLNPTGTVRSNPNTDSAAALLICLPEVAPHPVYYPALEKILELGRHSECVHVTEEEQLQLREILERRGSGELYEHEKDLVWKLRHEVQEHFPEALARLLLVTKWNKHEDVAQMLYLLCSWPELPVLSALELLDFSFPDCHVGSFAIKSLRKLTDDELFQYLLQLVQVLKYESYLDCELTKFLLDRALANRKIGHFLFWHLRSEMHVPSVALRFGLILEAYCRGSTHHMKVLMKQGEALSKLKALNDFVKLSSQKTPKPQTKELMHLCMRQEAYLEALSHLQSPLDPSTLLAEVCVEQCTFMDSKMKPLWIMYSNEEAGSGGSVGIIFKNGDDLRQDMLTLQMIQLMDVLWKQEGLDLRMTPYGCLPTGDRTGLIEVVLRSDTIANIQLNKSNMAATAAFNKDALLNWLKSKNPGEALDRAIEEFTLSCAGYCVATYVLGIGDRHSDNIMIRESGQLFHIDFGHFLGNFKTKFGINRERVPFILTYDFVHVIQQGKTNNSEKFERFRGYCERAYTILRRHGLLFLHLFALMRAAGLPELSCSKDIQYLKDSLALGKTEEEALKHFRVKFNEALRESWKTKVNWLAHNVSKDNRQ
Consider `CCn1ncc(-c2nc3c(O[C@H]4CCN(C(=O)c5nnc(N(C)C)o5)C4)ncnc3n2C)c1C`, for which the half-inhibitory concentration (IC50) worked out at 68 nM.
The result for `CCn1ncc(-c2nc3c(O[C@H]4CCN(Cc5ccc[nH]5)C4)ncnc3n2C)c1C` reads 440 nM; that for `CCC(=O)N1CC[C@H](Oc2ncnc3c2nc(Oc2cccc(C)c2C)n3C)C1`, 2400 nM.
Next, `CCn1c(-c2cnc(C)nc2)nc2c(O[C@H]3CCN(C(=O)N(C)c4ccccc4)C3)ncnc21`: 32 nM; `Cn1c(-c2ccc(O)cc2)nc2c(O[C@H]3CCN(C(=O)OC(C)(C)C)C3)ncnc21`: 98 nM; `CCn1ncc(-c2nc3c(O[C@H]4CCN(C(=O)c5ccncc5)C4)ncnc3n2C)c1C`: 13 nM.
As to `CCn1ncc(-c2nc3c(O[C@H]4CCN(C(C)c5ccccc5)C4)ncnc3n2C)c1C` (stereo partly specified), the IC50 came out at 270 nM.
The result for `CCC(=O)N1CC[C@H](Oc2ncnc3c2nc(-c2cc(O)cc(F)c2)n3C)C1` reads 3.8 nM; that for `CCn1ncc(-c2nc3c(O[C@H]4CCN(C(=O)NC(C)C)C4)ncnc3n2C)c1C`, 9.2 nM.
On to `CCn1c(-c2cnn3c2CCCC3)nc2c(O[C@H]3CCN(C(=O)C(C)C)C3)ncnc21`, for which the IC50 was less than 1 nM.
The result for `CCn1ncc(-c2nc3c(O[C@H]4CCN(C(=O)c5ccn(C)n5)C4)ncnc3n2C)c1C` reads 2.2 nM; that for `CCn1ncc(-c2nc3c(O[C@H]4CCN(C(=O)c5c(C)nn(C)c5C)C4)ncnc3n2C)c1C`, 74 nM; that for `CCn1c(-c2cnc(C)nc2)nc2c(O[C@H]3CCN(C(=O)c4cocn4)C3)ncnc21`, 14 nM.
Next, `CCn1c(-c2cnc(C)nc2)nc2c(OC3CN(C(=O)C4CC4)CC3C)ncnc21` (stereo unspecified): 2.9 nM.
The result for `CCn1c(-c2cnc(C)nc2)nc2c(O[C@H]3C[C@@H](NC(=O)OC(C)(C)C)C3)ncnc21` reads 96 nM and 220 nM; that for `CCn1ncc(-c2nc3c(O[C@H]4CCN(C(=O)C5CCC5)C4)ncnc3n2C)c1C`, 7 nM; that for `CCn1ncc(-c2nc3c(O[C@H]4CCN(C(=O)c5nnc(C)o5)C4)ncnc3n2C)c1C`, 31 nM.
Consider `CCn1ncc(-c2nc3c(O[C@H]4CCN(C(=O)c5ocnc5C)C4)ncnc3n2C)c1C`, for which the half-maximal inhibitory concentration (IC50) was found to be 15 nM.
Next, `Cn1c(-c2cnc(C(C)(C)C)s2)nc2c(O[C@H]3CCN(C(=O)OC(C)(C)C)C3)ncnc21`: 6.9 nM; `CCC(=O)N1CC[C@H](Oc2ncnc3c2nc(-c2ccc(OC)c(C(F)(F)F)c2)n3C)C1`: 2.5 nM.
The result for `CCn1ncc(-c2nc3c(OC4CCN(C(=O)OC(C)(C)C)CC4)ncnc3n2C)c1C` reads 610 nM.
The result for `CCn1ncc(-c2nc3c(O[C@H]4CCN(CC5CCCCC5)C4)ncnc3n2C)c1C` reads 300 nM; that for `CCn1c(-c2cnc(C)nc2)nc2c(O[C@H]3C[C@H](NS(=O)(=O)CC)C3)ncnc21`, 150 nM.
Take `CCn1ncc(-c2nc3c(O[C@H]4CCN(c5ncnc6sc(C)cc56)C4)ncnc3n2C)c1C`: the IC50 worked out at 5.2 nM.
The result for `CCn1ncc(-c2nc3c(OC4CCN(C(=O)C5CCOCC5)CC4)ncnc3n2C)c1C` reads 1100 nM; that for `CCn1c(-c2cnc(C)nc2)nc2c(O[C@H]3CCN(S(=O)(=O)CC)C3)ncnc21`, 170 nM; that for `CCn1c(-c2cnc(C)nc2)nc2c(O[C@H]3CCN(C(=O)[C@H]4CCC[C@H]4N)C3)ncnc21`, 25 nM.
In turn, `CCC(=O)N1CC[C@H](Oc2ncnc3c2nc(-c2cnc(OC)c(C(F)(F)F)c2)n3C)C1` displayed a half-maximal inhibitory concentration (IC50) of 7.8 nM.
Regarding `CCn1ncc(-c2nc3c(O[C@H]4CCN(C(=O)OCC(C)(C)C)C4)ncnc3n2C)c1C`, the IC50 came out at 28 nM.
The molecule `CC(=O)Nc1ccc(-c2nc3c(O[C@H]4CCN(C(=O)OC(C)(C)C)C4)ncnc3n2C)cc1` gave a half-maximal inhibitory concentration (IC50) of 140 nM.
`CCn1c(-c2ccc(C(F)(F)F)nc2)nc2c(O[C@H]3CCN(C(=O)N4CC(OC)C4)C3)ncnc21` yielded a half-inhibitory concentration (IC50) of less than 1 nM.
The molecule `CCn1ncc(-c2nc3c(O[C@H]4CCN(C(=O)c5cc(C)on5)C4)ncnc3n2C)c1C` returned an IC50 of 12 nM.
As to `CCn1ncc(-c2nc3c(O[C@H]4CCN(c5ncnc6ccsc56)C4)ncnc3n2C)c1C`, the IC50 was determined as 12 nM.
The result for `CCn1ncc(-c2nc3c(O[C@H]4CCN(c5cc(-n6cc(C)cn6)ncn5)C4)ncnc3n2C)c1C` reads 160 nM.
Next, `CCn1ncc(-c2nc3c(O[C@H]4CCN(C(=O)c5cnn6cccnc56)C4)ncnc3n2C)c1C`: 11 nM; `Cc1cc2cccc(-c3nc4c(O[C@H]5CCN(C(=O)OC(C)(C)C)C5)ncnc4n3C)c2[nH]1`: 660 nM.
The molecule `CCn1c(-c2cnc(C)nc2)nc2c(O[C@H]3CCN(C(=O)N4CCCCC4)C3)ncnc21` registered an IC50 of 21 nM.
The result for `CCn1ncc(-c2nc3c(O[C@H]4CCN(C(=O)CN5CCCC5=O)C4)ncnc3n2C)c1C` reads 480 nM; that for `CCn1c(N2CCC(S(C)(=O)=O)C2)nc2c(O[C@H]3CCN(C(=O)OC(C)(C)C)C3)ncnc21` (stereo partly specified), 700 nM; that for `CCn1ncc(-c2nc3c(O[C@H]4CCN(C(=O)c5oc(C)nc5C)C4)ncnc3n2C)c1C`, 3.7 nM.
Next, `CCn1ncc(-c2nc3c(O[C@H]4CCN(C(=O)c5cc(C(C)(C)C)nn5C)C4)ncnc3n2C)c1C`: 150 nM; `CCn1ncc(-c2nc3c(O[C@H]4CCN(C(=O)c5coc(C)n5)C4)ncnc3n2C)c1C`: 6.5 nM; `CCC(=O)N1CC[C@H](Oc2ncnc3c2nc(-c2cnc(OC)c(C#N)c2)n3C)C1`: 8.4 nM.
The result for `CCn1c(-c2cnc(C)nc2)nc2c(O[C@H]3CCN(C(=O)N4CC5CC5C4)C3)ncnc21` (stereo partly specified) reads 5.7 nM.
In turn, `CCn1c(-c2cnc(OC)c(C(F)(F)F)c2)nc2c(O[C@H]3CCN(C(=O)C4CC4)C3)ncnc21` had a half-inhibitory concentration (IC50) of less than 1 nM.
Regarding `CCn1c(N(C)C(C)C)nc2c(O[C@H]3CCN(C(=O)OC(C)(C)C)C3)ncnc21`, the concentration for half-maximal inhibition (IC50) came to 580 nM.
Next, `CCn1c(-c2cnc(C)nc2)nc2c(O[C@H]3CCN(C(=O)[C@@H](N)C(C)C)C3)ncnc21`: 9.8 nM; `CCn1c(-c2ccc(C(F)(F)F)cc2)nc2c(O[C@H]3CCN(C(=O)C4CC4)C3)ncnc21`: 3.4 nM; `CCn1c(-c2cnc(C)nc2)nc2c(O[C@H]3CCN(C(=O)C4CCOCC4)C3)ncnc21`: 8.5 nM.
The molecule `CCn1ncc(-c2nc3c(OC4CCN(C(=O)COC)C4)ncnc3n2C)c1C` (stereo unspecified) yielded a concentration for half-maximal inhibition (IC50) of 77 nM.
The molecule `CCn1ncc(-c2nc3c(S[C@H]4CCN(c5ccncn5)C4)ncnc3n2C)c1C` had a concentration for half-maximal inhibition (IC50) of 6 nM.
`CCn1ncc(-c2nc3c(O[C@H]4CCN(C(=O)c5nc6cc(Cl)ccn6n5)C4)ncnc3n2C)c1C` came in with an IC50 of 860 nM. This IC50 lies about 140-fold higher than the previous one.
Next, `CCn1ncc(-c2nc3c(O[C@H]4CCN(C(=O)Oc5ccc(C)cc5)C4)ncnc3n2C)c1C`: 340 nM.
On to `CCC(=O)N1CC[C@H](Oc2ncnc3c2nc(-c2cnn(-c4ccccc4)c2)n3C)C1`, for which the half-inhibitory concentration (IC50) worked out at 6.5 nM.
`CCn1ncc(-c2nc3c(O[C@H]4CCN(C(=O)CC#N)C4)ncnc3n2C)c1C` displayed a 50% inhibitory concentration (IC50) of 38 nM.
Next, `CCn1ncc(-c2nc3c(O[C@H]4CCN(C(=O)c5ccc(N6CCN(C)CC6)cc5)C4)ncnc3n2C)c1C`: 110 nM; `CCn1ncc(-c2nc3c(OC4CCC(C(=O)N5CCOCC5)C4)ncnc3n2C)c1C` (stereo unspecified): 220 nM; `CCn1ncc(-c2nc3c(O[C@@H]4CCN(C(=O)C5CCOCC5)C4)ncnc3n2C)c1C`: 1600 nM.
Molecule `CCn1ncc(-c2nc3c(O[C@H]4CCN(C(=O)c5ncoc5C)C4)ncnc3n2C)c1C` gave a concentration for half-maximal inhibition (IC50) of 7.2 nM.
The result for `CCn1ncc(-c2nc3c(O[C@H]4CCN(C(=O)c5cc6n(n5)CCC6)C4)ncnc3n2C)c1C` reads 76 nM.
The result for `CCn1c(-c2cnc(C)nc2)nc2c(O[C@@H]3CN(C(=O)C4CC4)C[C@H]3OC)ncnc21` reads 41 nM.
`CCn1c(-c2ccc(OC)nc2)nc2c(O[C@H]3CCN(C(=O)C(C)C)C3)ncnc21` showed an IC50 of 2.1 nM.
`CCn1c(-c2ccc(OC)nc2)nc2c(O[C@H]3CCN(C(=O)C4CC(F)(F)C4)C3)ncnc21` yielded an IC50 of less than 1 nM.
The result for `CCn1ncc(-c2nc3c(O[C@H]4CCN(C(=O)NC(C)(C)CC(C)(C)C)C4)ncnc3n2C)c1C` reads 4.7 nM; that for `CCC(=O)N1CC[C@H](Oc2ncnc3c2nc(-c2ccc(C)nc2)n3C)C1`, 66 nM; that for `CCn1c(-c2cnc(C)nc2)nc2c(O[C@H]3CCN(c4ccccn4)C3)ncnc21`, 1.7 nM.
Next, `CCNC(=O)N1CC[C@H](Oc2ncnc3c2nc(-c2cnn(CC)c2C)n3C)C1`: 10 nM.
Molecule `CCn1ncc(-c2nc3c(O[C@H]4CCN(C(=O)C5(C)CCOCC5)C4)ncnc3n2C)c1C` returned a half-maximal inhibitory concentration (IC50) of 28 nM.
Next, `CCC(=O)N1CC[C@H](Oc2ncnc3c2nc(-c2ccc4cn[nH]c4c2)n3C)C1`: 7.2 nM; `CCC(=O)N1CC[C@H](Oc2ncnc3c2nc(-c2ccc(OC)c(F)c2)n3C)C1`: 6.4 nM; `CCC(=O)N1CC[C@H](Oc2ncnc3c2nc(CC(C)C)n3C)C1`: 890 nM.
The result for `CCn1c(-c2ccc(OC(F)(F)F)cc2)nc2c(O[C@H]3CCN(C(=O)C4CC4)C3)ncnc21` reads 9.3 nM.
The result for `CCC(=O)N1CC[C@H](Oc2ncnc3c2nc(Oc2cnc(C)nc2)n3C)C1` reads 380 nM; that for `CCn1c(-c2cnc(C)nc2)nc2c(O[C@@H]3CN(C(=O)OC(C)(C)C)CC3(F)F)ncnc21.CCn1c(-c2cnc(C)nc2)nc2c(O[C@H]3CN(C(=O)OC(C)(C)C)CC3(F)F)ncnc21`, 22 nM.
The molecule `CCNC(=O)c1nc2c(O[C@H]3CCN(C(=O)OC(C)(C)C)C3)ncnc2n1CC` yielded an IC50 of 310 nM.
`CCn1c(-c2cnc(C)nc2)nc2c(O[C@H]3CCN(C(=O)N4CC(O)C4)C3)ncnc21` showed an IC50 of 4.3 nM.
The result for `CCC(=O)N1CC[C@H](Oc2ncnc3c2nc(-c2cncc(N)c2)n3C)C1` reads 5.7 nM; that for `CCn1c(N2CCC(C)CC2)nc2c(O[C@H]3CCN(C(=O)OC(C)(C)C)C3)ncnc21`, 380 nM.
On to `CCn1ncc(-c2nc3c(O[C@H]4CCN(C(=O)c5ccc(C)nc5)C4)ncnc3n2C)c1C`, for which the 50% inhibitory concentration (IC50) worked out at 70 nM.
The result for `CCn1c(-c2cnc(OC)c(F)c2)nc2c(O[C@H]3CCN(C(=O)c4ccn(C)n4)C3)ncnc21` reads less than 1 nM.
Next, `CCn1ncc(-c2nc3c(O[C@@H]4CC[C@H](NC(=O)C5CCOCC5)C4)ncnc3n2C)c1C`: 290 nM.

Broadly, the IC50 is the midpoint of a concentration-inhibition curve.

The record behind these values is the Kinase Knowledgebase extract (Sharma et al. 2016).
